Measurements published in patent US10857180B2, “Pharmaceutical composition for improving health, cure abnormalities and degenerative disease, achieve anti-aging effect of therapy and therapeutic effect on mammals and method thereof” (priority 2014, dated 2020).

Key:
[1] = Acute toxicity / tolerated dose in healthy mice; type: in vivo, mouse; parameters: weight of experimental animals: unit not given here; conditions: for animals in the group alive: 24 days
Description: To this end, the effects of the agent according to the invention on the basic physiological functions of healthy animals were studied. 70 male Cs7Bl/6J mice at the age of 7-8 weeks, weighing 18-23 g were used in the experiment. The animals were taken from R. E. Kavetsky IEPOR NASU Vivarium. Before the experiment, all the animals were healthy, with normal behavioral performance. During the experiment, the animals were kept in plastic cages under natural light illumination, on a standard diet with free access to food and water.
Clinical observations were carried out by daily examination of all animals kept in cages to identify mortality or any signs of a deviation in health status. […] All deviations were recorded. The size of the tumors was measured every 2 days (3 times a week) after the apparent onset of ascites/tumor node growth (at day 8 after the inoculation of tumor cells). Dying animals were euthanized, weighed and necropsied. The decision to euthanize such animals was taken jointly with the research supervisor and veterinarian. The animals were subjected to complete necrosis, which included examination of the external surface of the body, all passages, cranial, thoracic, abdominal cavities and their contents.
In the experiment, the animals were administered the solution comprising ^64Zne aspartate intraperitoneally at doses of 120 μg/mouse, 80 μg/mouse, 50 μg/mouse and 25 μg/mouse, and intravenously at doses of 50 μg/mouse, 25 gig/mouse and 12.5 μg/mouse. The agent was dissolved in deuterium-depleted water and injected 7 times every other day for 14 days in a volume of 0.5 ml/mouse for intraperitoneal injection and in a volume of 0.2 ml for intravenous injection with the agent. In order to determine the maximum tolerated dose of ^64Zne aspartate included in the composition of the agent according to the invention, the laboratory mice were injected with the ^64Zne aspartate solution using a series of injections (7 injections) and different routes of administration (i.p. or i.v.). The animals were observed during 24 days after the first administration of the agent (14 days for a series of injections of the ^64Zne compound and 10 days after the last administration of the agent). The overall health of the animals, state of coat and mucous membranes, their behavior, reflexes, and basic functions of the gastrointestinal tract were evaluated.

MCF-7 cell line = experiment: Cytogenetic analysis (micronucleus test) of MCF-7 cells; type: cell-based, human
Procedure: Advanced Micronucleus Test was used to assess the cytogenetic characteristics of cells after their exposure to the action of the test group of components.
Cytogenetic analysis was carried out after 48 hours of exposure of the cells to the action of the components. For cytogenetic analysis, the cells were incubated in hypotonic solution KCl (0.54%) (Reahim, Ukraine) for 40 minutes at +37° C. Then they were fixed with a mixture of methyl alcohol (Reahim, Ukraine) and acetic acid (Himlaborreaktiv, Ukraine) (3:1) with replacing the fixative three times. All fixed cell suspensions were applied on cold wet glasses, dried and stained with Giemsa stain (Sigma, Germany). The cytogenetic preparations were analyzed using a binocular microscope Sari Zeiss, AxioStarPlus (Germany) with magnification of x 1000. The following quantitative characteristics and stages of cell division were analyzed on the preparations: mitoses, cells with premature chromosome condensation (PCC), cells with micronuclei (CMN), apoptotic cells and cells with nuclear protrusions (protrusions) which were calculated for 1000 cells and expressed in per mille (%).

NC(CC(=O)[O-])C(=O)[O-].[64Zn+2] (racemic) [^64Zne aspartate, ^64Zn aspartate (racemic)]
animals in the group alive ([1]; i.p. 25 μg/mouse x7): 100% of the animals in the group are alive. Locomotor activity is
weight of experimental animals ([1]; i.p. 25 μg/mouse, day 0): 21.1 ± 0.5
weight of experimental animals ([1]; i.p. 25 μg/mouse, day 2): 20.1 ± 0.3
weight of experimental animals ([1]; i.p. 25 μg/mouse, day 4): 18.3 ± 0.7
weight of experimental animals ([1]; i.p. 25 μg/mouse, day 8): 18.4 ± 1
weight of experimental animals ([1]; i.p. 25 μg/mouse, day 11): 18.2 ± 0.9
weight of experimental animals ([1]; i.p. 25 μg/mouse, day 15): 19.2 ± 0.5
weight of experimental animals ([1]; i.p. 25 μg/mouse, day 19): 19.8 ± 0.4
weight of experimental animals ([1]; i.p. 25 μg/mouse, day 24): 20.5 ± 0.6
animals in the group alive ([1]; i.p. 50 μg/mouse x7): 100% of the animals in the group are alive. Locomotor activity is
weight of experimental animals ([1]; i.p. 50 μg/mouse, day 0): 21.3 ± 0.5
weight of experimental animals ([1]; i.p. 50 μg/mouse, day 2): 20.4 ± 0.4
weight of experimental animals ([1]; i.p. 50 μg/mouse, day 4): 19.2 ± 0.6
weight of experimental animals ([1]; i.p. 50 μg/mouse, day 8): 19.8 ± 0.7
weight of experimental animals ([1]; i.p. 50 μg/mouse, day 11): 19.5 ± 0.8
weight of experimental animals ([1]; i.p. 50 μg/mouse, day 15): 19 ± 0.6
weight of experimental animals ([1]; i.p. 50 μg/mouse, day 19): 19.2 ± 0.7
weight of experimental animals ([1]; i.p. 50 μg/mouse, day 24): 20 ± 0.5
animals in the group alive ([1]; i.p. 80 μg/mouse x7): 80% of the animals in the group are alive. Some changes in the
animals died after 4 or 5 injections ([1]; i.p. 80 μg/mouse, 8th or 10th day): agent. 20% of the animals in the group died after 4 or 5 injections
animals with short-lasting diarrhea ([1]; i.p. 80 μg/mouse, 18-24 hours after administration): It should be noted that a short-lasting diarrhea was observed in 40%
body weight loss compared to the control figures ([1]; i.p. 80 μg/mouse, already on the 4th day after first injection): 15-20%
weight of experimental animals ([1]; i.p. 80 μg/mouse, day 0): 21.4 ± 0.4
weight of experimental animals ([1]; i.p. 80 μg/mouse, day 2): 20.5 ± 0.5
weight of experimental animals ([1]; i.p. 80 μg/mouse, day 4): 17.3 ± 0.2
weight of experimental animals ([1]; i.p. 80 μg/mouse, day 8): 17.5 ± 0.1
weight of experimental animals ([1]; i.p. 80 μg/mouse, day 11): 17.3 ± 0.1
weight of experimental animals ([1]; i.p. 80 μg/mouse, day 15): 16.5 ± 0.1
weight of experimental animals ([1]; i.p. 80 μg/mouse, day 19): 17.2 ± 0.2
weight of experimental animals ([1]; i.p. 80 μg/mouse, day 24): 17.6 ± 0.1
animals in the group died ([1]; i.p. 120 μg/mouse, within 48 hours after the first injection): 100% of the animals in the group died within 48 hours after the
animals in the group alive ([1]; i.v. 12.5 μg/mouse x7): 100% of the animals in the group are alive. Locomotor activity is
weight of experimental animals ([1]; i.v. 12.5 μg/mouse, day 0): 21.1 ± 0.4
weight of experimental animals ([1]; i.v. 12.5 μg/mouse, day 2): 20.9 ± 0.3
weight of experimental animals ([1]; i.v. 12.5 μg/mouse, day 4): 20.2 ± 0.5
weight of experimental animals ([1]; i.v. 12.5 μg/mouse, day 8): 20.6 ± 0.9
weight of experimental animals ([1]; i.v. 12.5 μg/mouse, day 11): 20.6 ± 1
weight of experimental animals ([1]; i.v. 12.5 μg/mouse, day 15): 20.9 ± 0.9
weight of experimental animals ([1]; i.v. 12.5 μg/mouse, day 19): 21 ± 0.7
weight of experimental animals ([1]; i.v. 12.5 μg/mouse, day 24): 21.1 ± 0.8
animals in the group alive ([1]; i.v. 25 μg/mouse x7): 100% of the animals in the group are alive. Locomotor activity is
weight of experimental animals ([1]; i.v. 25 μg/mouse, day 0): 21.8 ± 0.3
weight of experimental animals ([1]; i.v. 25 μg/mouse, day 2): 21.3 ± 0.5
weight of experimental animals ([1]; i.v. 25 μg/mouse, day 4): 20.8 ± 0.5
weight of experimental animals ([1]; i.v. 25 μg/mouse, day 8): 21.4 ± 0.5
weight of experimental animals ([1]; i.v. 25 μg/mouse, day 11): 21.4 ± 0.5
weight of experimental animals ([1]; i.v. 25 μg/mouse, day 15): 21.3 ± 0.6
weight of experimental animals ([1]; i.v. 25 μg/mouse, day 19): 21.7 ± 0.4
weight of experimental animals ([1]; i.v. 25 μg/mouse, day 24): 21.6 ± 0.5
animals in the group died ([1]; i.v. 50 μg/mouse, within 10-20 minutes after the first injection): 100% of the animals in the group died within 10-20 minutes after
maximum tolerated dose ([1]; intraperitoneal): 80 μg/mouse
maximum tolerated dose ([1]; intravenously): 25 μg/mouse

O=S(=O)([O-])[O-].[64Zn+2] [^64Zn]
level of cells with micronuclei (MCF-7 cell line): more than a two-fold increase
